{
  "source": "PubChem BioAssay AID180",
  "about": "(DTP/NCI, 2004)",
  "test_system": "BDF1 mice, Adenocarcinoma 755 s.c., tumor weight T/C",
  "experiment": "NCI In Vivo Anticancer Drug Screen. Data for tumor model Adenocarcinoma 755 (subcutaneous) in B6D2F1 (BDF1) mice",
  "conditions": "endpoint: mean tumor weight, schedule: Q01DX011 (ip), higher = larger tumour",
  "summary_of_the_method": "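Tumor-bearing mice receive test compound while controls get vehicle alone. Antitumor effect is scored from survival or tumor dimensions as a T/C quotient.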",
  "key": {"[1]": {"conditions": "dose: 30.0 mg/kg/injection, vehicle: carboxymethylcellulose (CMC)"}, "[2]": {"conditions": "dose: 60.0 mg/kg/injection, vehicle: carboxymethylcellulose (CMC)"}},
  "note": "Values joined by “and” are separate entries in the source; they are usually repeats but may differ in a detail not shown here. Identical values can stand only once.",
  "data": [
    {"smiles": "Cn1c(=O)c2c(n(C)c1=O)[n+]([O-])c([N+]1([O-])CCOCC1)n2C", "values": [
      {"measurement": "T/C", "setting": "dose: 30.0 mg/kg/injection, vehicle: methylcellulose (MC)", "value": "91 % of control"},
      {"measurement": "T/C", "setting": "dose: 60.0 mg/kg/injection, vehicle: methylcellulose (MC)", "value": "100 % of control"},
      {"measurement": "T/C", "setting": "dose: 120.0 mg/kg/injection, vehicle: methylcellulose (MC)", "value": "95 % of control"},
      {"measurement": "T/C", "setting": "dose: 240.0 mg/kg/injection, vehicle: methylcellulose (MC)", "value": "95 % of control"}
    ]},
    {"smiles": "COc1ccc(/C=N/Nc2nc3c([nH]2)c(=O)n(C)c(=O)n3C)cc1", "values": [
      {"measurement": "T/C", "setting": "[1]", "value": "108 % of control"},
      {"measurement": "T/C", "setting": "[2]", "value": "94 % of control"},
      {"measurement": "T/C", "setting": "dose: 480.0 mg/kg/injection, vehicle: carboxymethylcellulose (CMC)", "value": "64 % of control"}
    ]},
    {"smiles": "N#[N+]c1cnc([O-])[nH]c1=O", "values": [
      {"measurement": "T/C", "setting": "dose: 1.25 mg/kg/injection, vehicle: carboxymethylcellulose (CMC)", "value": "111 % of control"},
      {"measurement": "T/C", "setting": "dose: 1.41 mg/kg/injection, vehicle: carboxymethylcellulose (CMC)", "value": "80 % of control"},
      {"measurement": "T/C", "setting": "dose: 1.47 mg/kg/injection, vehicle: carboxymethylcellulose (CMC)", "value": "116 % of control"},
      {"measurement": "T/C", "setting": "dose: 2.5 mg/kg/injection, vehicle: carboxymethylcellulose (CMC)", "value": "53 % of control"},
      {"measurement": "T/C", "setting": "dose: 2.83 mg/kg/injection, vehicle: carboxymethylcellulose (CMC)", "value": "108 % of control"},
      {"measurement": "T/C", "setting": "dose: 2.95 mg/kg/injection, vehicle: carboxymethylcellulose (CMC)", "value": "98 % of control"},
      {"measurement": "T/C", "setting": "dose: 5.0 mg/kg/injection, vehicle: carboxymethylcellulose (CMC)", "value": "39 % of control"},
      {"measurement": "T/C", "setting": "dose: 5.65 mg/kg/injection, vehicle: carboxymethylcellulose (CMC)", "value": "94 % of control"},
      {"measurement": "T/C", "setting": "dose: 5.9 mg/kg/injection, vehicle: carboxymethylcellulose (CMC)", "value": "76 % of control"},
      {"measurement": "T/C", "setting": "dose: 11.3 mg/kg/injection, vehicle: carboxymethylcellulose (CMC)", "value": "49 % of control"},
      {"measurement": "T/C", "setting": "dose: 1170.0 micrograms/kg/injection, vehicle: carboxymethylcellulose (CMC)", "value": "86 % of control"},
      {"measurement": "T/C", "setting": "dose: 2925.0 micrograms/kg/injection, vehicle: carboxymethylcellulose (CMC)", "value": "78 % of control"}
    ]},
    {"smiles": "CC1(C)OC2C(CO)OC(n3cnc4c(SCc5ccccc5)ncnc43)C2O1", "note": "(stereo not given)", "values": [
      {"measurement": "T/C", "setting": "dose: 31.0 mg/kg/injection, vehicle: methylcellulose (MC)", "value": "79 % of control"},
      {"measurement": "T/C", "setting": "dose: 62.0 mg/kg/injection, vehicle: methylcellulose (MC)", "value": "59 % of control"},
      {"measurement": "T/C", "setting": "dose: 125.0 mg/kg/injection, vehicle: methylcellulose (MC)", "value": "50 % of control"}
    ]},
    {"smiles": "Cn1c(=O)c2c(nc(N(CCO)CCO)n2C)n(C)c1=O", "values": [
      {"measurement": "T/C", "setting": "dose: 480.0 mg/kg/injection, vehicle: saline", "value": "112 % of control"}
    ]},
    {"smiles": "CCOC=Nc1c(N)ncnc1Cl", "values": [
      {"measurement": "T/C", "setting": "[1]", "value": "67 % of control"},
      {"measurement": "T/C", "setting": "dose: 50.0 mg/kg/injection, vehicle: carboxymethylcellulose (CMC)", "value": "107 % of control"},
      {"measurement": "T/C", "setting": "[2]", "value": "34 % of control"},
      {"measurement": "T/C", "setting": "dose: 62.5 mg/kg/injection, vehicle: olive oil, sesame oil, peanut oil", "value": "62 % of control"},
      {"measurement": "T/C", "setting": "dose: 100.0 mg/kg/injection, vehicle: carboxymethylcellulose (CMC)", "value": "60 % of control"},
      {"measurement": "T/C", "setting": "dose: 120.0 mg/kg/injection, vehicle: carboxymethylcellulose (CMC)", "value": "10 % of control"},
      {"measurement": "T/C", "setting": "dose: 125.0 mg/kg/injection, vehicle: olive oil, sesame oil, peanut oil", "value": "65 % of control"},
      {"measurement": "T/C", "setting": "dose: 200.0 mg/kg/injection, vehicle: carboxymethylcellulose (CMC)", "value": "38 % of control"},
      {"measurement": "T/C", "setting": "dose: 240.0 mg/kg/injection, vehicle: carboxymethylcellulose (CMC)", "value": "2 % of control"},
      {"measurement": "T/C", "setting": "dose: 250.0 mg/kg/injection, vehicle: olive oil, sesame oil, peanut oil", "value": "43 % of control"},
      {"measurement": "T/C", "setting": "dose: 400.0 mg/kg/injection, vehicle: carboxymethylcellulose (CMC)", "value": "11 % of control"},
      {"measurement": "T/C", "setting": "dose: 500.0 mg/kg/injection, vehicle: olive oil, sesame oil, peanut oil", "value": "23 % of control"}
    ]},
    {"smiles": "O=C(Nc1ccc2c(O)c(N=Nc3ccccc3)c(S(=O)(=O)O)cc2c1)Nc1ccc2c(O)c(N=Nc3ccc4cc(S(=O)(=O)O)ccc4c3)c(S(=O)(=O)O)cc2c1", "values": [
      {"measurement": "T/C", "setting": "dose: 45.0 mg/kg/injection, vehicle: carboxymethylcellulose (CMC)", "value": "47 % of control"}
    ]},
    {"smiles": "CCOC(=O)C1=C(C)NC(C)=C(C(=O)OCC)C1C", "values": [
      {"measurement": "T/C", "setting": "dose: 31.2 mg/kg/injection, vehicle: other", "value": "85 % of control"},
      {"measurement": "T/C", "setting": "dose: 62.5 mg/kg/injection, vehicle: other", "value": "77 % of control"},
      {"measurement": "T/C", "setting": "dose: 125.0 mg/kg/injection, vehicle: other", "value": "79 % of control and 81 % of control"}
    ]},
    {"smiles": "Cc1ccc(N=S=O)cc1", "values": [
      {"measurement": "T/C", "setting": "dose: 125.0 mg/kg/injection, vehicle: saline", "value": "68 % of control"}
    ]}
  ]
}
